Here are results for four molecules from patent US12502400B2, “Method of preventing of systemic-to-pulmonary-artery shunt thrombosis” (Chiesi Farmaceutici S.p.A., priority 2017, dated 2025).

One series has as its system purified platelets. As to the kind of experiment: ADP-induced platelet aggregation by light transmission aggregometry (LTA), EC50 for ADP. The series is classed as cell-based, human. The conditions noted are these: LTA with fibrinogen. As to the method: Purified platelets were suspended to a final concentration of 400,000/μl in platelet buffer containing 145 mM NaCl, 10 mM Hepes, 0.5 mM Na2HPO4, 5 mM KCl, 2 mM MgCl2, 1 mM CaCl2), 0.10% glucose, pH 7.4. […] Human fibrinogen (final concentration 200 μg/ml) was added to the platelet suspensions just prior to activation. Aggregation was assessed using a Chronolog Lumi-Aggregometer (model 540 VS, Chronolog, Havertown, PA) and permitted to proceed for 6 min after the addition of agonist. The results are reported as maximum percent change in light transmittance from baseline with platelet buffer used as a reference.
We next determine the functional response of platelets from neonates as well as older patients with congenital heart disease to ADP stimulation. This was accomplished by calculating EC50 values for the agonist using isolated platelets in fibrinogen-supplemented buffer.

For series [1] the following is noted: early institution within 12 hours of surgery; cited from earlier work.
Series [2] concerns platelets in PPACK-treated whole blood. As to the kind of experiment: Multichannel microfluidic device, platelet accumulation on collagen under flow. In kind it is cell-based. The settings on record: Homo sapiens, read-out: effective IC50 (surface fluorescence at 300 s). As to the method:
Microfluidic devices with 8 individual channels (250 μm wide×60 μm-high) were fabricated in polydimethylsiloxane (PDMS) as previously described. The device was reversibly vacuum-sealed to a glass slide with its flow channels aligned perpendicularly to a patterned type 1 collagen surface (1 mg/ml). To visualize platelet accumulation over time, an Alexa Fluor 488 conjugated, non-function blocking mouse anti-human CD61 (GPIIb/IIIa) antibody was added (1:50 ratio) 7 min prior to performing experiments (0.125 μg/ml final concentration).
Whole blood from neonates with single ventricle pathology or healthy adults was perfused over the prothrombotic surface at an initial wall shear rate of 100 s^−1 by withdrawal from a single outlet into a syringe pump (Harvard Apparatus Pump 11 Elite, Holliston, MA). Platelet accumulation was visualized (10× objective lens) using an automated inverted microscope system (DMI6000, Leica) equipped with a CCD camera (DFC365FX, Leica). A custom stage insert held three microfluidic devices allowing replicate testing of four conditions. Images were captured in 30 s intervals for a total of 5 min. Platelet fluorescence intensities, which are directly proportional to the total platelet mass were measured and analyzed with Image J software (Image J; NIH, Bethesda, MD). The center 65% of the prothrombotic region was selected for analysis to avoid edge effects. […]

Series [3] relates to human platelet thrombus formation. In words: Human platelet thrombus formation in laser-injured arterioles of avatar mice. In kind it is in vivo, VWFHA1 mutant mice. The settings on record: for Contrast estimate (mean difference in thrombus size pre- and post-administration): linear mixed model; for platelet accumulation at sites of arteriole injury: platelets from neonates and older pediatric CHD patients. As to the method: Administration of anesthesia, insertion of venous and arterial catheters, fluorescent labeling of human platelets, and surgical preparation of the cremaster muscle in 12 week old male VWF HA1 mice have been previously described.
Human platelets (700K/μL) were continuously infused (25 μl/min) through a catheter placed in the ipsilateral femoral artery 2 min prior to and during laser-induced injury to ensure a level of circulating cells equivalent to humans.^33 Injury to the vessel wall of arterioles (40-65 μm diameter) was performed with a pulsed nitrogen dye laser applied through a 20× water-immersion Olympus objective. Human platelet-vessel wall interactions were visualized by fluorescence microscopy using a system equipped with a Yokogawa CSU-22 spinning disk confocal scanner, iXON EM camera, and 488-nm laser line (Revolution XD, Andor Technology, South Windsor, CT) to detect Calcein-AM-labeled cells, respectively. The extent of thrombus formation was assessed for 3 min after injury and the maximal area (μm^2) of coverage determined by off-line analysis (ImagePro Plus, Media Cybernetics, Bethesda, MD).
A minimum of 5 mice per patient group were studied (2 and 4 arterial segments pre and post-cangrelor per mouse, respectively).
To compare mean thrombus areas between different treatment groups, we fit linear mixed models with random intercepts for each study animal. Linear mixed models permit comparison of mean differences between treatment groups while also considering the effect of the clustering of the data on the SEs resulting from multiple measurements obtained from each mouse used in intravital studies. In the case of platelet aggregation studies, values are presented as mean±SEM. A 2-tailed Student t test was used for comparisons between control conditions and treatments. Differences with values of P<0.05 were considered statistically significant.

The conditions of series [4]: adults with coronary artery disease, cited from earlier work.
For another series, the system named is platelet aggregation. In words: Phase 1 PK/PD clinical trial in post-operative neonates with CHD, LTA and microfluidics. The settings on record: infusion 0.5 or 0.25 μg/kg/min for one hour; post-operative neonates with shunt. In kind it is in vivo, human. An excerpt: FIG. 7. Pharmacodynamic properties of cangrelor administered to neonates with CHD in the early post-operative period. A phase 1 clinical trial is currently being conducted to assess the drug plasma levels and effects on platelet aggregation using LTA and microfluidics. […] B, microfluidic results under the same conditions as outlined for LTA.

For series [5] the following is noted: cited from earlier work.
The next series has as its target T1, integrin αIIbβ3 (Homo sapiens, UniProt P05106+P08514).
T1 construct: the platelet integrin receptor αIIbβ3 that stabilizes adhesion by engaging with ligands such as VWF; endogenous in cells; host or cells: platelets from pediatric patients with CHD or healthy adults
As to the kind of experiment: ADP-induced firm adhesion of platelets to surface-immobilized VWF in flow. The settings on record: platelets from pediatric CHD patients or healthy adults. The series is classed as cell-based. As to the method: A parallel-plate flow chamber was used to assess platelet accumulation on surface-immobilized plasma VWF at a wall shear rate of 1,600s-1.29, 31 In brief, a polyclonal anti-VWF antibody was absorbed overnight (4° C.) to a six-well tissue culture plate. Subsequently, the plate was washed and nonspecific interactions blocked by the addition of TBS containing 3% BSA, pH 7.4 (30 min, 37° C.). Human or murine (VWF^HA1) plasma obtained from heparinized whole blood was added and the plates placed at 37° C. for an additional hour prior to use. Citrated whole blood was then perfused over the reactive substrate for 3 minutes, followed by the addition of platelet buffer lacking CaCl2 for 1 min. The number of platelets attached per unit area was determined by offline analysis (ImagePro Plus, Media Cybernetics, Bethesda, MD) of recorded digital images. For GPIbα inhibition studies, mAb 6D1 (10 μg/ml) was added to anticoagulated human blood for 10 min before use.
Although GPIbα initiates platelet deposition at arterial shear rates, this adhesive interaction is labile in nature permitting platelets to translocate in response to forces generated by flowing blood. Ultimately it is the platelet integrin receptor αIIbβ3 that stabilizes adhesion by engaging with ligands such as VWF in response to ADP and/or thrombin.

Where two headings read alike, the source gives them in different places.

For the molecule `Nc1ncnc2c1ncn2[C@@H]1O[C@H](COP(=O)(O)OP(=O)(O)O)[C@@H](O)[C@H]1O` [ADP], the EC50 in the series with purified platelets (platelets from CHD patients 0-28 days) worked out at 3.4 ± 0.1 µM; in the series with purified platelets (platelets from CHD patients 1-10 years) it was 2.9 ± 0.1 µM; in the series on purified platelets (platelets from CHD patients 11-18 years), 3.2 ± 0.2 µM; in the series with purified platelets (platelets from healthy adults), 3.2 ± 0.2 µM.
Consider `CC(=O)Oc1ccccc1C(=O)O` [aspirin], for which, in series [1], the “risk of shunt thrombosis and death” value is “reduced the risk of shunt thrombosis and death”.
On to `CSCCNc1nc(SCCC(F)(F)F)nc2c1ncn2[C@@H]1O[C@H](COP(=O)(O)OP(=O)(O)C(Cl)(Cl)P(=O)(O)O)[C@@H](O)[C@H]1O` [cangrelor], for which the IC50 in series [2] (whole blood from healthy adults) turned out to be 0.00095 µM; in series [2] (whole blood from neonates with CHD (single ventricle physiology)), 0.00069 µM. In addition, the “Contrast estimate (mean difference in thrombus size pre- and post-administration)” value is listed as 3,501 μm2 in series [3] (platelets from adults), 2,261 μm2 in series [3] (platelets from age group 0-28 days), 3,314 μm2 in series [3] (platelets from age group 1-10 years) and 3,475 μm2 in series [3] (platelets from age group 11-18 years). In addition, the reduced thrombus size in series [3] (platelets from neonates and older CHD patients, all cases, doses recommended for PCI, P<0.0001) is above 45%. Besides, the “platelet accumulation at sites of arteriole injury” value in series [3] was “did not completely prevent platelet accumulation”. In series [3] (platelets from pediatric cardiac patients, 30 μg/kg bolus then 4 μg/kg/min infusion, P<0.0001), the “reduction in thrombus size” value was around 45%. Besides, in series [4] (PCI), the “risk of severe bleeding” value is listed as “without significantly increasing the risk of severe bleeding”. Besides, the “ischemic events during PCI” value in series [4] is listed as “significantly reduce ischemic events”. Also, the “effect on platelet aggregation assessed by LTA and microfluidics” value with platelet aggregation is “efficacy and rapid reversibility”. In addition, the “restoration of hemostasis, as assessed by bleeding time” value in series [5] (after cessation of infusion of a supratherapeutic dose) was at most 10 min. Further, in series [5] (after cessation of infusion), the “full platelet function recovery as determined by response to ADP” value is at most 60 min.
With “abciximab: function blocking antibody to integrin αIIbβ3”, the “platelet accumulation at sites of arteriole injury” value in series [3] is listed as “nearly abrogated platelet-vessel wall interactions”. The abrogated platelet accumulation in series [3] (platelets from pediatric cardiac patients, laser-injured arterioles, P<0.0001) is above 90%. Besides, the “firm adhesion of platelets to surface-immobilized VWF in response to ADP” value in the series with integrin αIIbβ3 was “prevent the firm adhesion”.

A word on the EC50: it is the concentration needed to bring the measured effect to its halfway point. A low value points to higher potency in that assay. For orientation: IC50 means the concentration needed to halve the response being measured.
